Experimental data reported in patent publication EP0869784B1, “INHIBITION OF FATTY ACID SYNTHASE AS A MEANS TO REDUCE ADIPOCYTE MASS” (THE JOHNS HOPKINS UNIVERSITY, priority 1995, dated 1997).

Key:
FAS = FAS (Homo sapiens, UniProt P49327); experiment: FAS activity in hypotonic lysate of OVCAR-3 ascites cells (malonyl-CoA dependent oxidation of NADPH at 340 nm); assay type: biochemical
Description: Compounds which inhibit FAS can be identified by testing the ability of a compound to inhibit fatty acid synthase activity using purified enzyme. Fatty acid synthase activity can be measured spectrophotometrically based on the oxidation of NADPH, or radioactively by measuring the incorporation of radiolabeled acetyl- or malonyl-CoA. (Dils, et al, Methods Enzymol, 35:74-83). FAS inhibitors are exemplified in U.S. patent application 08/188,425 and International patent publication WO 94/02108, both of which are incorporated herein by reference.

[1] = test system: HL60 human promyelocytic leukemia cells; experiment: HL60 viable cell count with or without palmitate (fatty acid rescue); assay type: cell-based; conditions: 2.5 ug/ml; palmitate 80 micromolar; viable cells by trypan blue exclusion, Figure 5
Protocol: Suitable FAS inhibitors may be identified by a simple test exemplified in Example 7, and in U.S. patent application 08/188,425. Generally, this test uses a tumor cell line in which an FAS inhibitor, typically cerulenin, is cytotoxic. Such cell lines include SKBR-3, ZR-75-1, and preferably HL60. Suitable FAS inhibitors will inhibit growth of such cell lines, but the cells are rescued by exogenous supply of the product of the FAS enzyme (fatty acid). When cell growth is measured in the presence and absence of exogenous fatty acid (e.g., palmitate or oleate), inhibition by specific FAS inhibitors is relieved by the fatty acid.
200,000 HL60 cells were plated in 24-well plates in 1 ml fatty acid free medium with or without palmitate (80 micromolar, complexed to fatty acid free albumin 0.2:1). Cells were treated with 2.5 ug/ml of C-75. Cells were incubated in 5% CO2 at 37°C and viable cells were counted with trypan blue exclusion at 24, […], 72, and 96 hours. Results are plotted in Figure 5; each time point was performed in triplicate, error bars are the standard deviation. […] Note that palmitate alone causes some suppression of HL60 proliferation.

OVCAR-3 cells = experiment: Survival of nude mice inoculated with OVCAR-3 cells (Examples 8 and 9); assay type: in vivo
Protocol: (§1) 20 nude mice (Harland) mice were inoculated on Day 0 with 0.1 ml packed OVCAR-3 cells. 10 mice received transisomer of C-75 (20 mg/kg) in 100 ul RPMI on days 1, 3, and 5. 10 mice received 100 ul of RPMI i.p. alone on days 1, 3, and 5. Animals were weighed on days indicated on Figure 6. Animals were sacrificed when 30% increase in body weight occurred from tumor growth.
(§2) This indicates a dose response to the anti-tumor effect of C-75.

[2] = C-75-induced weight loss in nude mice inoculated with OVCAR-3 cells (Examples 8 and 9); assay type: in vivo
Protocol: as §1, §2

[3] = test system: HL60 human promyelocytic leukemia cells; experiment: [U14C]-acetate incorporation by HL60 cells; assay type: cell-based; conditions: 10 µg/ml, time dependent, Figure 3
Protocol: (§3) HL60 cells were labeled with [U^14C]-acetate in the presence of 10 µg/ml C-75; cells were incubated in 5% CO2 at 37°C. Results are plotted in Figure 3; each time point was performed in triplicate, error bars are the standard deviation.

[4] = C-75-induced weight loss in OVCAR-3 xenograft mice, pilot study (Example 6); assay type: in vivo; conditions: 60 mg/kg on days 1, 3, and 5
Protocol: C-75 was tested in vivo in a pilot study against the OVCAR-3 xenograft model of Example 4. Ten mice were inoculated intraperitoneally with 10^7 OVCAR-3 cells. The mice were treated on days 1, 3, and 5 with either DMSO or 60 mg/kg C-75. Results are plotted in Figure 4. C-75 treated mice experienced a 20% reduction in weight loss by day eight. Animals regained their original weight by day 15, increased their weight to nearly 110% of original body weight by day 24, and achieved original body weight by day 34.

[5] = test system: hepatic fatty acid synthesis; experiment: In vivo metabolic labeling with [U-3H]-acetate, liver fatty acid synthesis; parameters: species or system mice
Protocol: (§4) Fatty acid synthesis was measured using metabolic labeling in vivo with [U-^3H]-acetate as described in Pizer, et al., 1996, Cancer Res., 56:1189-1193.
Thus, the reversible cerulenin-induced weight loss may be the result of fatty acid synthesis inhibition as well as decreased appetite in the mice.
as §3

[6] = Half life of the drug in ascites; parameters: species or system mice; conditions: mouse, in vivo, ip
[7] = Cerulenin-induced weight loss in athymic nude mice (Example 2), with necropsy from a parallel experiment; assay type: in vivo
Protocol: Athymic mice received 60 mg/kg cerulenin i.p. in 25% DMSO/saline or vehicle alone each day for 1 week. The animal weights were recorded every two days up to day 15. Average animal weight for both groups of mice is plotted against treatment day in Figure 1. Error bars represent standard error of the mean. […] In addition there was a 28% reduction of feces mass in the cerulenin-treated group consistent with deceased food intake.

[8] = test system: OVCAR-3 ascites tumor fatty acid synthesis; experiment: In vivo metabolic labeling with [U-3H]-acetate, tumor fatty acid synthesis; parameters: species or system mice
Protocol: as §4

[9] = Cerulenin-induced weight loss in nude mice with OVCAR-3 xenografts (Example 3); assay type: in vivo, Athymic mice; conditions: 80 mg/kg i.p. for 1 week
Protocol: Cerulenin was administered as described in Example 2 above to mice which received 10^7 OVCAR-3 human ovarian cancer cells. Athymic mice received 0.1 ml of packed NIH-OVCAR-3 cells (approximately […]) intraperitoneally on treatment day 0. Beginning on day 1, treated mice received 80 mg/kg cerulenin i.p. in 25% DMSO/saline for 1 week, while untreated mice received vehicle alone. […] Weight loss constitutes the major toxicity observed during fatty acid synthesis inhibition therapy with cerlenin; the mice regained inception body mass within 10 days following treatment.

[10] = 60 mg/kg i.p. each day for 1 week

Chain of FAS (P49327 whole entry): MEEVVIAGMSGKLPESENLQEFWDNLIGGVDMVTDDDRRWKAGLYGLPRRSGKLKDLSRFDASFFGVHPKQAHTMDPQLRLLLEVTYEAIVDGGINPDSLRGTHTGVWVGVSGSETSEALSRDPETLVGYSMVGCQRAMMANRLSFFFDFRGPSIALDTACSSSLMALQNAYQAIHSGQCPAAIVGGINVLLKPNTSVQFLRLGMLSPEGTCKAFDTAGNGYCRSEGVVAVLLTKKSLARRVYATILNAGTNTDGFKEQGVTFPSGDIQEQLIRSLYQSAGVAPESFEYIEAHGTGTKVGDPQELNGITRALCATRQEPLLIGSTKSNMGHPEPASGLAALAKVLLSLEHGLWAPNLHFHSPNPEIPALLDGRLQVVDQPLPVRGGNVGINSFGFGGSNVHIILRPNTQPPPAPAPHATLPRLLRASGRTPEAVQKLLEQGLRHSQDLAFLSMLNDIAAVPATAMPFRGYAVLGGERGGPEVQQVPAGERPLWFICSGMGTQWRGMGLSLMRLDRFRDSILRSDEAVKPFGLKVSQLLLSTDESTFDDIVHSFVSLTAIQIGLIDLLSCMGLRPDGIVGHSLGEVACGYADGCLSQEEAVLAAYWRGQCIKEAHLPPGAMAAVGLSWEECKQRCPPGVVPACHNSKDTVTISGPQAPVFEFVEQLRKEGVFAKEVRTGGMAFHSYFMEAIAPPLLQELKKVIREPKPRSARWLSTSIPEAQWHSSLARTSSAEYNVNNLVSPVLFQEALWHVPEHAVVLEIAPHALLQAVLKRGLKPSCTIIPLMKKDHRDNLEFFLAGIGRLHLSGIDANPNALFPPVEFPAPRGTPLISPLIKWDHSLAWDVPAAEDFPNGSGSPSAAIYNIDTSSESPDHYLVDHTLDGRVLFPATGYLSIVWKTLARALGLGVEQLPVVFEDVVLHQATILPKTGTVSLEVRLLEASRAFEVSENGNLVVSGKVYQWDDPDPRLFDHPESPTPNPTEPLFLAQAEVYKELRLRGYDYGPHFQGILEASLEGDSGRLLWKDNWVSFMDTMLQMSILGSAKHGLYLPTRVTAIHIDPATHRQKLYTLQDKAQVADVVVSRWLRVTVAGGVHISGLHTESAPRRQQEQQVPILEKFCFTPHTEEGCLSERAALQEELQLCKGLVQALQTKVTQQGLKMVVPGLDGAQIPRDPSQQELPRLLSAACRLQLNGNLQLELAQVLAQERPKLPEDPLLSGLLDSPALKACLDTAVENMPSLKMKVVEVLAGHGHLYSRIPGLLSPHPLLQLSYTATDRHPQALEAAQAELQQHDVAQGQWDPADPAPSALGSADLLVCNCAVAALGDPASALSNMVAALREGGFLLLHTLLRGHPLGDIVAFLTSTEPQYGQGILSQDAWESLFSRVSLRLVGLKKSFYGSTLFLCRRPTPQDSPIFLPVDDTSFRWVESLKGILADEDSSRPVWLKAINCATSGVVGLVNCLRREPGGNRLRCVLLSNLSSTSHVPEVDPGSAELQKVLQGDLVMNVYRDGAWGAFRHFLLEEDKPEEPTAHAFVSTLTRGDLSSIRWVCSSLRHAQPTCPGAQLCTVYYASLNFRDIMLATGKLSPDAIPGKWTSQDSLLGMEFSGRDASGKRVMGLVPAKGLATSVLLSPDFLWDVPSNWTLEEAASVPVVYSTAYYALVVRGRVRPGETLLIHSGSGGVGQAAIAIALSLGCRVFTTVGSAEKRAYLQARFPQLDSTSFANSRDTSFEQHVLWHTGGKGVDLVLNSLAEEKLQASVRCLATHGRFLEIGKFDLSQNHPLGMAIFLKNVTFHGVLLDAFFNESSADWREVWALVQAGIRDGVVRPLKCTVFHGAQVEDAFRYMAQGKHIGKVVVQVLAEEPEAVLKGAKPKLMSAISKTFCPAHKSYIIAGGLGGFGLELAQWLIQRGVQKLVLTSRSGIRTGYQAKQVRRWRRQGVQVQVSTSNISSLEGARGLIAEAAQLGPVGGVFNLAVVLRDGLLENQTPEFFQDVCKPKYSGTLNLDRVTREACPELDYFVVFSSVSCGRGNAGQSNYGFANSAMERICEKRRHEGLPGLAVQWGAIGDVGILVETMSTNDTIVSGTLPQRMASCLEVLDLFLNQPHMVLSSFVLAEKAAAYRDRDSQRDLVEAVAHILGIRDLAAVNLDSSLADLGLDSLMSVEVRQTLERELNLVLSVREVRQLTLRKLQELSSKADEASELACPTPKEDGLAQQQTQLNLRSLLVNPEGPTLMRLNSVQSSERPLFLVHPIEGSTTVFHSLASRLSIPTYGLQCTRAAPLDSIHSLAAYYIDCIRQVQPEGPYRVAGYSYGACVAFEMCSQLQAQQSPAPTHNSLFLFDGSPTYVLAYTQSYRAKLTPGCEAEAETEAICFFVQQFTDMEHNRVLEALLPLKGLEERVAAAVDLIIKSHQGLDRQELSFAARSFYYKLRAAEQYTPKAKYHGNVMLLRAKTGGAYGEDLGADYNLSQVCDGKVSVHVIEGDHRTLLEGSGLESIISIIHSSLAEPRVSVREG

C=C1C(=O)O[C@@H](CCCCCCCC)[C@@H]1C(=O)O (relative stereo) [Example C-75, trans-Tetrahydro-3-methylene-2-oxo-5-n-octyl-4-furancarboxylic acid]
reduction of FAS activity compared to control lysate (FAS; 50 µg/ml, 37 °C, 180 min): 3 fold
FAS activity (FAS; 50 µg/ml, 37 °C, 180 min, control 5.6): 1.8 nM NADPH oxidized/min
effect of incubation at 4° (FAS; incubation at 4°): abolishes the inhibitory effect
rescue from growth inhibition by exogenous fatty acid [1]: palmitate rescues HL60 cells from C-75
survival of the xenograft (OVCAR-3 cells; 20 mg/kg on days 1, 3, and 5, p=0.001 Wilcoxon and Mantel): increased survival
survival (OVCAR-3 cells; only one dose, wilcoxon p=0.56, Mantel p=0.52): trend showing increased survival, but it was not statistically significant
weight loss in mice ([2]; 20 mg/kg on days 1, 3, and 5, Figure 6): causes weight loss
average maximum weight loss ([2]; only one dose, on day 3): about 3 grams
reduction in fatty acid synthesis (label incorporation into phospholipids) [3]: nearly a three-fold reduction
day by which original body weight was achieved again after the increase [4]: ≤ 34 days
day by which original weight was regained [4]: ≤ 15 days
weight relative to original body weight ([4]; by day 24): ~110%
body weight loss ([4]; by day eight): 20%
reduction of [U-3H] acetate incorporation into fatty acids in mouse liver ([5]; pilot in vivo metabolic labeling studies): 30%

C/C=C/C/C=C/CCC(=O)[C@H]1O[C@H]1C(N)=O [cerulenin]
half-life [6]: < 15 min
Water intake [7, 10]: not appreciable altered
reduction of feces mass [7, 10]: 28%
weight relative to original weight ([7]; 60 mg/kg i.p. each day for 1 week, by day 14): 96%
average loss of weight ([7]; 60 mg/kg i.p. each day for 1 week, by day eight): 28%
Observation of the mice (activity) ([7]; during the period of maximal weight loss): normal activity
Liver, microscopically ([7]; necropsy, parallel experiment): unremarkable without necrosis or inflammation
muscle mass, histologically ([7]; necropsy, parallel experiment): no decrease in muscle mass was detected histologically
Necropsy: fat deposits ([7]; parallel experiment): markedly decreased subcutaneous fat and abdominal fat deposits
inhibition with high dose over standard dose ([8]; high dose 6mg/mouse versus standard dose 2mg/mouse): No augmentation of inhibition
reduction of OVCAR-3 ascites tumor fatty acid synthesis ([8]; intraperitoneal administration as in Example 3): 43%
time to regain inception body mass following treatment [9]: ≤ 10 days
urinalysis, diabetogenic effect [9]: failed to demonstrate any diabetogenic effect
mean weight loss of original body mass ([9]; during the treatment period): 25%
effect on mean hepatic fatty acid synthesis ([5]; mice with OVCAR-3 ascites tumor, intraperitoneal administration): no effect
inhibition of fatty acid synthesis in liver ([5]; mice without tumor, parallel experiments): ~50%
